The values below come from ChEMBL document CHEMBL3244106, “Antidepressant agents. 9. 3,3-Diphenylcyclobutylamines, a new class of central stimulants” (J Med Chem, 1978).

The species named for series [1] is Mus musculus.
Description: Mydriatic effect in iv dosed NMRI albino mouse assessed as concentration required to increase pupil diameter by 200%
The next series in a line: in vivo. Particulars: NMRI albino, mouse, iv.
For series [2], the species on record is Mus musculus. Briefly: animal or person. Particulars: NMRI, ip.
The species named for series [3] is Mus musculus. As to the kind of experiment: animal or person. Particulars: NMRI, Hypothalamus, ip.
Series [4] is filed under the species Mus musculus. As to the kind of experiment: animal or person. Particulars: NMRI, Hypothalamus, ip. This is another data set of the same source.
For series [5], the species on record is Mus musculus. As to the kind of experiment: animal or person. Conditions: NMRI, Hypothalamus, ip. This is another data set of the same source.
Series [6] deals with Mus musculus. As to the kind of experiment: Antidepressant activity in NMRI albino mouse assessed as hyperactivity by measuring repetitive movements of head at 20 mg/kg, ip after 2 hrs relative to vehicle-treated control. It counts as functional, organism-based. The arrangement: dose 20 mg/kg.
Series [7] deals with Mus musculus. As to the kind of experiment: Antidepressant activity in NMRI albino mouse assessed as hyperactivity by measuring sniffing at 20 mg/kg, ip after 2 hrs relative to vehicle-treated control. The class given is functional, organism-based. The arrangement: dose 20 mg/kg.
Series [8] has as its system Mus musculus. As to the kind of experiment: Antidepressant activity in NMRI albino mouse assessed as hyperactivity by measuring circling of head at 20 mg/kg, ip after 2 hrs relative to vehicle-treated control. The class given is functional, organism-based. The arrangement: dose 20 mg/kg.
In series [9] the target is Sodium-dependent noradrenaline transporter (Mus musculus, UniProt O55192).
Description: Inhibition of noradrenaline transporter in NMRI albino mouse brain assessed as [3H]NA accumulation in hypothalamus after 5 mins
For series [10], the system named is Mus musculus. As to the kind of experiment: Antidepressant activity in NMRI albino mouse assessed as hyperactivity by measuring tremor at 20 mg/kg, ip after 2 hrs relative to vehicle-treated control. It counts as functional, organism-based. The arrangement: dose 20 mg/kg.
The test system of series [11] is Mus musculus. Briefly: Antidepressant activity in NMRI albino mouse assessed as hyperactivity by measuring rearing at 20 mg/kg, ip after 2 hrs relative to vehicle-treated control. The class given is functional, organism-based. The arrangement: dose 20 mg/kg.
The test system of series [12] is Mus musculus. As to the kind of experiment: Antidepressant activity in NMRI albino mouse assessed as increase in locomotion at 20 mg/kg, ip after 2 hrs relative to vehicle-treated control. It counts as functional, organism-based. The arrangement: dose 20 mg/kg.
Series [13] has as its target Sodium-dependent serotonin transporter (Mus musculus, UniProt Q60857).
Series [14] concerns Mus musculus. Briefly: Antidepressant activity in NMRI albino mouse assessed as hyperactivity by measuring motor excitation at 20 mg/kg, ip after 2 hrs relative to vehicle-treated control. It counts as functional, organism-based. The arrangement: dose 20 mg/kg.
In series [15] the test system is Mus musculus. Briefly: Antidepressant activity in NMRI albino mouse assessed as hyperactivity by measuring irritability at 20 mg/kg, ip after 2 hrs relative to vehicle-treated control. It counts as functional, organism-based. The arrangement: dose 20 mg/kg.
The test system of series [16] is Mus musculus. As to the kind of experiment: Induction of hyperactivity in NMRI albino mouse at 20 mg/kg, ip in presence of alpha-methyltyrosine. The arrangement: dose 20 mg/kg. It counts as functional, organism-based.
Series [17] has as its system Mus musculus. As to the kind of experiment: Induction of hyperactivity in NMRI albino mouse at 20 mg/kg, ip in presence of reserpine. The class given is functional, organism-based. The arrangement: dose 20 mg/kg.
Series [18] concerns Mus musculus. Briefly: Induction of hyperactivity in NMRI albino mouse at 20 mg/kg, ip in presence of pimozide. The arrangement: dose 20 mg/kg. It counts as functional, organism-based.
Series [19] relates to Mus musculus. Briefly: Induction of hyperactivity in NMRI albino mouse at 20 mg/kg, ip in presence of phenoxybenzamine. The class given is functional, organism-based. The arrangement: dose 20 mg/kg.
The subject of series [20] is Mus musculus. Briefly: Induction of hyperactivity in NMRI albino mouse at 20 mg/kg, ip in presence of methergoline. The arrangement: dose 20 mg/kg. It counts as functional, organism-based.

The source made the active and inactive calls. The calls are words filed in the database; no cut-off is given here. Some results are limits rather than exact numbers.

Chain of Sodium-dependent noradrenaline transporter (O55192 whole entry): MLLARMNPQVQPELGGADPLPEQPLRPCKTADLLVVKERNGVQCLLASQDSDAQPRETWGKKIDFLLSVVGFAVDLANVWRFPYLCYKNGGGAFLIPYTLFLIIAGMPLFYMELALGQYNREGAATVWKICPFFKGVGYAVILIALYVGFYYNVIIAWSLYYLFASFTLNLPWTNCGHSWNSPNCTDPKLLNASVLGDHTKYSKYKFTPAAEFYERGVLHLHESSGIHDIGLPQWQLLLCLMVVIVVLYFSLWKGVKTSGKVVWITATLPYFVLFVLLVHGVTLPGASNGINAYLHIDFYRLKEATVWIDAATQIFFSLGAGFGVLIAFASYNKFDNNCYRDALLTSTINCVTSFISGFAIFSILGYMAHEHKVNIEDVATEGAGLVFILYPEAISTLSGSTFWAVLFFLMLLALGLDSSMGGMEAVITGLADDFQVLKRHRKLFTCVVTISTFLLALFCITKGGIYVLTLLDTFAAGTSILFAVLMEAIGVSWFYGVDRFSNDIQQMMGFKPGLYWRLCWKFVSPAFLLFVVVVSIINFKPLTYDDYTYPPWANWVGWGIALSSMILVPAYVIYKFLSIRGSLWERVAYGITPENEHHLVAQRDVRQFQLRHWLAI
Chain of Sodium-dependent serotonin transporter (Q60857 whole entry): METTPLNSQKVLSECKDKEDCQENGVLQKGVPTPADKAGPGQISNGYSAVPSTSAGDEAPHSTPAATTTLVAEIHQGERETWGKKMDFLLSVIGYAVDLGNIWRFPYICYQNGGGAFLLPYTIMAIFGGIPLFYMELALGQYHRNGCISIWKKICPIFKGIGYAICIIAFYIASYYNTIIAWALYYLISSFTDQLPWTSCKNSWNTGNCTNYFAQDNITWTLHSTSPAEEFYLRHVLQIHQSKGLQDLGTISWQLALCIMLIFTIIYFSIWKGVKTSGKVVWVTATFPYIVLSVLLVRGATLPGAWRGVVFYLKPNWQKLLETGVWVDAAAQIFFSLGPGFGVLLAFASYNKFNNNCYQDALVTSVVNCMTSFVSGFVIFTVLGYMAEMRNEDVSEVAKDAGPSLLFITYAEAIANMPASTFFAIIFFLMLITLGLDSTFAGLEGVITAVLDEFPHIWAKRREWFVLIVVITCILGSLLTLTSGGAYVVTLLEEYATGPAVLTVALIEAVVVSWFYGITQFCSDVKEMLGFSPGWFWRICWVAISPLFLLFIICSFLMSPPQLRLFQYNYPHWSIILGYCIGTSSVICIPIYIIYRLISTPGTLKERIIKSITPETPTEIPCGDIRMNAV
Description for in vivo: Acute toxicity in iv dosed NMRI albino mouse assessed as lethality up to 24 hrs

`CN(C)CCCN1c2ccccc2CCc2ccc(Cl)cc21` [CLOMIPRAMINE] came in with a PD200 in the series listed under Mus musculus [1] of 6 µmol/kg. The LD50 at 24 h in “in vivo” is 142 µmol/kg. In addition, the ED50 was 8 µmol/kg in the series listed under Mus musculus [2], 20 µmol/kg in the series filed under Mus musculus [3], 109 µmol/kg in the series listed under Mus musculus [4] and > 113 µmol/kg in the series filed under Mus musculus [5].

Compound `CNC1CC(c2ccccc2)(c2ccccc2)C1.Cl` returned a PD200 in the series filed under Mus musculus [1] of 9 µmol/kg. For the same compound, the outcome with Mus musculus [6], in the series on Mus musculus [7], in the series on Mus musculus [8], in the series on Mus musculus [10], with Mus musculus [11] and in the series on Mus musculus [12] was Active. In addition, the outcome in the series with Mus musculus [14] and in the series with Mus musculus [15] was Active. Further, in the series “in vivo”, the LD50 at 24 h stood at 128 µmol/kg. In addition, the ED50 in the series listed under Mus musculus [2] came out at 9 µmol/kg; in the series filed under Mus musculus [3] it was 95 µmol/kg; in the series listed under Mus musculus [4] it was 31 µmol/kg; in the series filed under Mus musculus [5], 91 µmol/kg. Also, the IC50 amounted to 800 nM in series [9] and 3000 nM in series [13].

Take `Cl.NC1CC(c2ccccc2)(c2ccccc2)C1`: the PD200 in the series listed under Mus musculus [1] was found to be 15 µmol/kg. Moreover, the outcome with Mus musculus [6], in the series on Mus musculus [7], with Mus musculus [8], with Mus musculus [10], with Mus musculus [11] and in the series with Mus musculus [12] was Active. The result in the series on Mus musculus [14] and with Mus musculus [15] was Active. Also, the LD50 at 24 h in the series “in vivo” is 192 µmol/kg. The ED50 is > 38 µmol/kg in the series listed under Mus musculus [2], 162 µmol/kg in the series listed under Mus musculus [3], 103 µmol/kg in the series filed under Mus musculus [4] and > 154 µmol/kg in the series listed under Mus musculus [5]. Also, the results for the IC50 in series [9] and in series [13] were 2200 nM and 2800 nM, respectively.

In turn, `CN(C)C1CC(c2ccccc2)(c2ccccc2)C1.Cl` had a PD200 in the series listed under Mus musculus [1] of 24 µmol/kg. In addition, the outcome in the series on Mus musculus [6], in the series with Mus musculus [7], in the series on Mus musculus [8], in the series on Mus musculus [16], in the series with Mus musculus [10] and in the series with Mus musculus [11] was Active. Further, the result in the series with Mus musculus [19], in the series with Mus musculus [12], in the series on Mus musculus [20], in the series with Mus musculus [14] and in the series on Mus musculus [15] was Active. The compound further gave an LD50 at 24 h in “in vivo” of 104 µmol/kg. Further, the ED50 came to 17 µmol/kg in the series listed under Mus musculus [2], 48 µmol/kg in the series filed under Mus musculus [3], 32 µmol/kg in the series filed under Mus musculus [4] and 104 µmol/kg in the series listed under Mus musculus [5]. The outcome with Mus musculus [17] and in the series with Mus musculus [18] was inactive. The IC50 was 800 nM in series [9] and 900 nM in series [13].
